Experimental data reported in ChEMBL document CHEMBL3421591, “Improved Synthesis of Biotinol-5'-AMP: Implications for Antibacterial Discovery” (ACS Med Chem Lett, 2015).
≈ marks a conversion by molar mass, not a printed value. Calls of active or inactive are those of the source. The rule behind the calls is not given here.

Columns and labels:
Type in all cases: functional
[1] = test system: Mycobacterium tuberculosis; assay: Antimicrobial activity against rifampicin-resistant Mycobacterium tuberculosis Who-185 after 16 to 20 hrs by two-fold microdilution broth method
[2] = test system: Mycobacterium tuberculosis; assay: Antimicrobial activity against pyrazinamide-resistant Mycobacterium tuberculosis BCG(SI) after 16 to 20 hrs by two-fold microdilution broth method
[3] = test system: Mycobacterium tuberculosis; assay: Antimicrobial activity against isoniazid-resistant Mycobacterium tuberculosis Who-185 after 16 to 20 hrs by two-fold microdilution broth method

**Q.** For `Nc1ncnc2c1ncn2[C@@H]1O[C@H](CNS(=O)(=O)NC(=O)CCCC[C@@H]2SC[C@@H]3NC(=O)N[C@@H]32)[C@@H](O)[C@H]1O`, which MIC [1] is on record?
**A.** 0.1 mg/L (≈ 0.175 µM)

**Q.** What about the MIC [2] of the same compound?
**A.** 0.1 mg/L (≈ 0.175 µM)

**Q.** And the MIC [3]?
**A.** 0.1 mg/L (≈ 0.175 µM)

**Q.** How did the MIC [1] turn out when `Nc1ncnc2c1ncn2[C@@H]1O[C@H](COP(=O)(O)OCCCCC[C@@H]2SC[C@@H]3NC(=O)N[C@@H]32)[C@@H](O)[C@H]1O` was run?
**A.** 2.5 mg/L (≈ 4.47 µM)

**Q.** What about the MIC [2] of the same compound?
**A.** inactive

**Q.** And the MIC [3]?
**A.** 0.5 mg/L (≈ 0.894 µM)
